From patent US12630600B2 (MEDIMMUNE LIMITED, priority 2022, dated 2026)
Read-outs that look alike come from different tables or passages of the source. Starred links: 1 amine or outer side, 2 acyl side, 3 side chain; linkers in the order of their positions; H or OH if unused. Non-standard residues stand in square brackets, D forms with d. Residues, ends and D or L forms follow the SMILES beside them. Groups on a side chain read outwards from the residue. *: point of attachment. C20 diacid = O=C(O)CCCCCCCCCCCCCCCCCCC(=O)*; C18 diacid = O=C(O)CCCCCCCCCCCCCCCCC(=O)*; Dip = N[C@H](C(=O)O)C(c1ccccc1)c1ccccc1; γGlu = O=C(O)[C@H](CCC(=O)[*:2])N[*:1]; X3 = O=C(CN(Cc1c[nH]cn1)[*:1])[*:2]; αMeF = C[C@](N)(Cc1ccccc1)C(=O)O; PEG2 = NCCOCCOCCC(=O)O; AEEA = NCCOCCOCC(=O)O; Aib = CC(C)(N)C(=O)O

Tests used:
[1] = target: T1, human GLP-1 receptor (hGLP-1R) (Homo sapiens, UniProt P43220); experiment: cAMP production (HTRF) in CHO cells expressing human GLP-1 receptor; assay type: cell-based; conditions: for EC50: geometric mean, cAMP, read-out: hGLP-1R EC50; for % Relative Potency Ratio: % GLP-1R activity relative to GLP-1 / % GlucR activity relative to glucagon
T1 construct: expressed in transfected cells; host or cells: CHO
T1 sequence (P43220 24-463): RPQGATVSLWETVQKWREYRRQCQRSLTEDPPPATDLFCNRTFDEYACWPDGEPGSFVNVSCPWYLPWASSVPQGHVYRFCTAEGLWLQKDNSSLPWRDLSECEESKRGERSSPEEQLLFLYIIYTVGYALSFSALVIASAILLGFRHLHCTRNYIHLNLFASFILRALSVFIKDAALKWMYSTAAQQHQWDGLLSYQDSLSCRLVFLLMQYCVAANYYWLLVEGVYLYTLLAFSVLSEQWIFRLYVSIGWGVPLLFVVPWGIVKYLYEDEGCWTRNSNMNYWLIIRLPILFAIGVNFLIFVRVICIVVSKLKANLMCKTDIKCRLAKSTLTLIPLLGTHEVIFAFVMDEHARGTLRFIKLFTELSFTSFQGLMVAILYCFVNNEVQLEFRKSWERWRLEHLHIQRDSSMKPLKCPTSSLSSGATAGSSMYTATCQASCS

[2] = target: T2, human glucagon receptor (hGCGR) (Homo sapiens, UniProt P47871); experiment: cAMP production (HTRF) in CHO cells expressing human glucagon receptor; assay type: cell-based; conditions: read-out: hGluc-R EC50
T2 construct: expressed in transfected cells; host or cells: CHO
T2 sequence (P47871 26-477): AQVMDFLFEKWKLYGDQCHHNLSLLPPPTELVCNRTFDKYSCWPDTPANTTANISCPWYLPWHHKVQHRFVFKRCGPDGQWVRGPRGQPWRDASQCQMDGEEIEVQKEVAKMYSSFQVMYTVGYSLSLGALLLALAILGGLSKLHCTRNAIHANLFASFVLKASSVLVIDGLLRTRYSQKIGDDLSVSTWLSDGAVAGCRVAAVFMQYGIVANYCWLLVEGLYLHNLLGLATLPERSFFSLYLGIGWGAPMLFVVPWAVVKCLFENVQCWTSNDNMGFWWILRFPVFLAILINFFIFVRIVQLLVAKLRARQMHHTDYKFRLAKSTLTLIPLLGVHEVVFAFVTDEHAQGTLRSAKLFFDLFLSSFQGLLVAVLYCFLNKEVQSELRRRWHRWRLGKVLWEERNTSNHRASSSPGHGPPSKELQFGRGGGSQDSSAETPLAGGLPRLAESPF
Experimental: Cells were re-suspended in assay buffer at a batch-dependent optimized concentration (typically hGLP-1R cells at 1×10^5 cells/mL, hGCGR cells at 2×10^5 cells/mL).
Cells were added to the assay plate using a multidrop dispenser and incubated at room temperature for 30 minutes before measuring the cAMP level using a cAMP dynamic 2 homogeneous time resolved Fluorescence (HTRF) kit (Cisbio Bioassays #62AM4PEJ) following the two-step protocol as per manufacturer's recommendations. In brief, anti-cAMP cryptate (donor fluorophore) and cAMP-d2 (acceptor fluorophore) were made up separately by diluting each 1 in 20 in conjugate and lysis buffer provided in the kit. Anti-cAMP cryptate was added to all wells of the assay plate, followed by cAMP-d2 added to all wells except non-specific binding (NSB) wells (to which conjugate and lysis buffer was added).
Data was transformed to % Delta F as described in the manufacturer's guidelines and analyzed by 4-parameter logistic fit to determine EC50 values.

[3] = Table 8, peptides modified at position 24, CHO cells
[4] = Table 8, peptides modified at position 24, geometric mean, CHO cells
[5] = Table 6, modification at position 17, CHO cells expressing hGCGR, geometric mean

CC[C@H](C)[C@H](NC(=O)[C@H](Cc1c[nH]c2ccccc12)NC(=O)[C@H](CCCCNC(=O)COCCOCCNC(=O)COCCOCCNC(=O)CC[C@H](NC(=O)CC[C@H](NC(=O)CCCCCCCCCCCCCCCCCCC(=O)O)C(=O)O)C(=O)O)NC(=O)[C@@H](NC(=O)[C@H](Cc1ccccc1)NC(=O)[C@H](CC(=O)O)NC(=O)[C@H](CCC(N)=O)NC(=O)[C@H](C)NC(=O)[C@H](C)NC(=O)[C@H](CCCNC(=N)N)NC(=O)[C@H](CO)NC(=O)[C@H](CC(=O)O)NC(=O)[C@H](CC(C)C)NC(=O)[C@](C)(Cc1ccccc1)NC(=O)[C@H](CCCCN)NC(=O)[C@H](CO)NC(=O)[C@@H](NC(=O)[C@H](CC(=O)O)NC(=O)[C@H](CO)NC(=O)[C@@H](NC(=O)[C@](C)(Cc1ccccc1)NC(=O)[C@H](CO)NC(=O)CNC(=O)[C@H](Cc1c[nH]cn1)NC(=O)[C@H](CO)NC(=O)CNCc1c[nH]cn1)[C@@H](C)O)C(C)C)C(C)C)C(=O)N[C@@H](C)C(=O)N[C@@H](CC(N)=O)C(=O)N[C@H](C(N)=O)[C@@H](C)O [Peptide 380] (H-[X3]SHGS[αMeF]TSDVSK[αMeF]LDSRAAQDFVK([AEEA-AEEA-γGlu-γGlu-C20 diacid])WIANT-NH2; N-terminus assumed)
EC50 [1, 3]: 0.871 nM
EC50 [2, 4]: 14.9 nM

CC[C@H](C)[C@H](NC(=O)C(C)(C)NC(=O)[C@H](CCCCNC(=O)COCCOCCNC(=O)COCCOCCNC(=O)CC[C@H](NC(=O)CC[C@H](NC(=O)CCCCCCCCCCCCCCCCC(=O)O)C(=O)O)C(=O)O)NC(=O)[C@@H](NC(=O)[C@](C)(Cc1ccccc1)NC(=O)[C@H](CC(=O)O)NC(=O)[C@H](CCC(N)=O)NC(=O)[C@H](C)NC(=O)[C@H](C)NC(=O)[C@H](CCCNC(=N)N)NC(=O)[C@H](CO)NC(=O)[C@H](CC(=O)O)NC(=O)[C@H](CC(C)C)NC(=O)[C@](C)(Cc1ccccc1)NC(=O)[C@H](CCCCN)NC(=O)[C@H](CO)NC(=O)[C@@H](NC(=O)[C@H](CC(=O)O)NC(=O)[C@H](CO)NC(=O)[C@@H](NC(=O)[C@](C)(Cc1ccccc1)NC(=O)[C@H](CO)NC(=O)CNC(=O)[C@H](Cc1c[nH]cn1)NC(=O)C(C)(C)NC(=O)[C@@H](N)Cc1c[nH]cn1)[C@@H](C)O)C(C)C)C(C)C)C(=O)N[C@@H](C)C(=O)N[C@@H](CC(N)=O)C(=O)N[C@H](C(N)=O)[C@@H](C)O [Peptide 372] (H-H[Aib]HGS[αMeF]TSDVSK[αMeF]LDSRAAQD[αMeF]VK([AEEA-AEEA-γGlu-γGlu-C18 diacid])[Aib]IANT-NH2; N-terminus assumed)
EC50 [1, 3]: 0.0718 nM
% Relative Potency Ratio ([1]; Table 8): 1.0
EC50 [2, 4]: 0.0351 nM

CC[C@H](C)[C@H](NC(=O)[C@@H](NC(=O)C(C)(C)NC(=O)[C@H](CCC(=O)O)NC(=O)[C@@H](NC(=O)[C@](C)(Cc1ccccc1)NC(=O)[C@H](CC(=O)O)NC(=O)[C@H](CCC(N)=O)NC(=O)[C@H](C)NC(=O)[C@H](C)NC(=O)[C@H](CCCCNC(=O)CCOCCOCCNC(=O)CCOCCOCCNC(=O)CC[C@H](NC(=O)CC[C@H](NC(=O)CCCCCCCCCCCCCCCCC(=O)O)C(=O)O)C(=O)O)NC(=O)[C@H](CO)NC(=O)[C@H](CC(=O)O)NC(=O)[C@H](CC(C)C)NC(=O)[C@@H](NC(=O)[C@H](CCCCN)NC(=O)[C@H](CO)NC(=O)[C@@H](NC(=O)[C@H](CC(=O)O)NC(=O)[C@H](CO)NC(=O)[C@@H](NC(=O)[C@](C)(Cc1ccccc1)NC(=O)[C@H](CO)NC(=O)CNC(=O)[C@H](CCC(N)=O)NC(=O)[C@H](CO)NC(=O)[C@@H](N)Cc1c[nH]cn1)[C@@H](C)O)C(C)C)C(c1ccccc1)c1ccccc1)C(C)C)[C@@H](C)CC)C(=O)N[C@@H](CC(N)=O)C(=O)N[C@H](C(N)=O)[C@@H](C)O [Peptide 65] (H-HSQGS[αMeF]TSDVSK[Dip]LDSK([PEG2-PEG2-γGlu-γGlu-C18 diacid])AAQD[αMeF]VE[Aib]IINT-NH2)
EC50 ([1]; Table 6, modification at position 17, CHO cells expressing hGLP-1R): 1.23 nM
% Relative Potency Ratio ([1]; Table 6): 3.3
EC50 [2, 5]: 2.06 nM

CCCCCCCCCCCCCCCCCC(=O)N[C@@H](CCC(=O)N[C@@H](CCC(=O)NCCOCCOCCC(=O)NCCOCCOCCC(=O)NCCCC[C@H](NC(=O)[C@H](CCCCN)NC(=O)[C@H](CO)NC(=O)[C@@H](NC(=O)[C@H](CC(=O)O)NC(=O)[C@H](CO)NC(=O)[C@@H](NC(=O)[C@](C)(Cc1ccccc1)NC(=O)[C@H](CO)NC(=O)CNC(=O)[C@H](CCC(N)=O)NC(=O)[C@H](CO)NC(=O)[C@@H](N)Cc1c[nH]cn1)[C@@H](C)O)C(C)C)C(=O)N[C@@H](CC(C)C)C(=O)N[C@@H](CC(=O)O)C(=O)N[C@@H](CO)C(=O)N[C@H](C(=O)N[C@@H](C)C(=O)N[C@@H](C)C(=O)N[C@@H](CCC(N)=O)C(=O)N[C@@H](CC(=O)O)C(=O)N[C@@](C)(Cc1ccccc1)C(=O)N[C@H](C(=O)N[C@@H](CCC(=O)O)C(=O)N[C@@H](Cc1c[nH]cn1)C(=O)N[C@@H](CC(C)C)C(=O)N[C@@H](C)C(=O)N[C@@H](CC(N)=O)C(=O)N[C@H](C(N)=O)[C@@H](C)O)C(C)C)C(C)(C)CCNC(=N)N)C(=O)O)C(=O)O [Peptide 404, HSQGS(αMePhe)TSDVSKK((PEG)2-(PEG)2-γE-γE-Stearoyl)13LDS(ß-dimethylArg)AAQD(αMePhe)VEHLANT-amide]
EC50 ([1]; Table 10, peptides modified at position 13, CHO cells): 0.00565 nM
% Relative Potency Ratio ([1]; Table 10): 7.6
EC50 ([2]; Table 10, peptides modified at position 13, geometric mean, CHO cells): 0.0218 nM

CC[C@H](C)[C@H](NC(=O)[C@H](Cc1c[nH]c2ccccc12)NC(=O)[C@H](CCC(N)=O)NC(=O)[C@@H](NC(=O)[C@H](Cc1ccccc1)NC(=O)[C@H](CC(=O)O)NC(=O)[C@H](CCCCNC(=O)COCCOCCNC(=O)COCCOCCNC(=O)CC[C@H](NC(=O)CCCCCCCCCCCCCCCCC(=O)O)C(=O)O)NC(=O)[C@H](C)NC(=O)[C@H](C)NC(=O)[C@H](CCCNC(=N)N)NC(=O)[C@H](CO)NC(=O)[C@H](CC(=O)O)NC(=O)[C@H](CC(C)C)NC(=O)[C@](C)(Cc1ccccc1)NC(=O)[C@H](CCCCN)NC(=O)[C@H](CO)NC(=O)[C@@H](NC(=O)[C@H](CC(=O)O)NC(=O)[C@H](CO)NC(=O)[C@@H](NC(=O)[C@](C)(Cc1ccccc1)NC(=O)[C@@H](NC(=O)CNC(=O)[C@H](CCC(N)=O)NC(=O)C(C)(C)NC(=O)[C@@H](N)Cc1c[nH]cn1)[C@@H](C)O)[C@@H](C)O)C(C)C)C(C)C)C(=O)N[C@@H](C)C(=O)N[C@@H](CC(N)=O)C(=O)N[C@H](C(N)=O)[C@@H](C)O [Peptide 204] (H-H[Aib]QGT[αMeF]TSDVSK[αMeF]LDSRAAK([AEEA-AEEA-γGlu-C18 diacid])DFVQWIANT-NH2; N-terminus assumed)
EC50 ([1]; Table 7, modification at position 20, CHO cells expressing hGLP-1R): 0.0433 nM
% Relative Potency Ratio ([1]; Table 7): 27.2
EC50 ([2]; Table 7, modification at position 20, CHO cells expressing hGCGR, geometric mean): 0.595 nM

CC(C)C[C@H](NC(=O)[C@H](Cc1c[nH]c2ccccc12)NC(=O)[C@H](CCCNC(=N)N)NC(=O)[C@@H](NC(=O)[C@H](Cc1ccccc1)NC(=O)[C@H](CC(=O)O)NC(=O)[C@H](CCCNC(=N)N)NC(=O)[C@H](C)NC(=O)[C@H](CCCNC(=N)N)NC(=O)[C@H](CCCCNC(=O)CC[C@H](NC(=O)CC[C@H](NC(=O)COCCOCCNC(=O)COCCOCCNC(=O)CC[C@H](NC(=O)CC[C@H](NC(=O)CCCCCCCCCCCCCCCCC(=O)O)C(=O)O)C(=O)O)C(=O)O)C(=O)O)NC(=O)[C@H](CO)NC(=O)[C@H](CC(=O)O)NC(=O)[C@H](CC(C)C)NC(=O)[C@](C)(Cc1ccccc1)NC(=O)[C@H](CCCCN)NC(=O)[C@H](CO)NC(=O)[C@@H](NC(=O)[C@H](CC(=O)O)NC(=O)[C@H](CO)NC(=O)[C@@H](NC(=O)[C@H](Cc1ccccc1)NC(=O)[C@@H](NC(=O)CNC(=O)[C@H](CCC(N)=O)NC(=O)C(C)(C)NC(=O)[C@@H](N)Cc1c[nH]cn1)[C@@H](C)O)[C@@H](C)O)C(C)C)C(C)C)C(=O)N[C@@H](CC(C)C)C(=O)N[C@@H](CCC(=O)O)C(=O)NC(C)(C)C(=O)NCC(=O)O [Peptide 136] (H-H[Aib]QGTFTSDVSK[αMeF]LDSK([γGlu-γGlu-AEEA-AEEA-γGlu-γGlu-C18 diacid])RARDFVRWLLE[Aib]G-OH; N-terminus assumed)
EC50 [2, 5]: 0.509 nM
